One may read the viability as the share of living cells, or the viability signal relative to a control.

The text below walks through data of patent US20230033849A1, “CBD SUNSCREEN FORMULATIONS AND USES THEREOF” (JUPITER WELLNESS, INC., priority 2021, published 2023).

Assay [1] has as its system Human primary epidermal keratinocytes (ATCC PCS 200-011). Put plainly: MTT cell viability assay of keratinocytes after UVB irradiation. The class given is cell-based. The note with it: CBD 1 μM, 4 μM and 8 μM for 1 hour before UVB, 10 seconds (approximately 60 mJ/cm^2), cells not treated with CBD 17%. As to the method:
(§1) Human primary epidermal melanocytes (ATCC PCS200-013) and keratinocytes (ATCC PCS 200-011) cell-lines were cultured using serum free complete growth media (ATCC PCS 200-030). Cells were cultured at 37 C.° with 5% CO2. Cells were grown to 80% confluence before being washed with PBS buffer (37° C.) and trypsinized with EDTA-trypsin. A small aliquot of cells was stained with Trypan blue and counted using a haemocytometer. The remaining cells were plated in a 24 well plate with 300 uL of complete growth media (ATCC) for UV experimentation. Approximately 27*10^3 cells were added to each well. Twenty-four hours after inoculation, individual wells were treated with one of three different concentrations of CBD isolate (CBD Brands, Jupiter, Fla.) or left untreated (control). The concentrations of CBD used were 1 μM, 4 μM and 8 μM, respectively.
After CBD treatment for 1 hour, all cells were washed and with chilled (4° C.) PBS buffer. […] Exposure times were determined prior to the experiment, empirically, by exposing different wells to increasing UV exposure time and next conducting an MTT assay. […] The chosen exposure time was based on the exposure time that led to greater than 40% cell viability versus untreated cells determined by MTT assay. […] After exposure the effect of CBD on cell viability was evaluated by an MTT assay. […]
In general terms: Formazan colour is commonly taken as a measure of viable cells.

The test system of assay [2] is Human primary epidermal melanocytes (ATCC PCS200-013). Put plainly: MTT cell viability assay of melanocytes after UVB irradiation. Conditions: Melanocyte, light or radiation study, approximately 60 mJ/cm^2, 0 μM control 16%, read-out: viability after UV irradiation. The class given is cell-based. The method, then: as §1
After CBD treatment for 1 hour, all cells were washed and with chilled (4° C.) PBS buffer. UV exposure experiments were conducted in chilled PBS buffer to avoid heat stress. Cells were irradiated with UVB light (Dermalight 80, UVB lamp). The distance of the lamp to the wells of the plate was kept constant at 3 cm. Exposure times were determined prior to the experiment, empirically, by exposing different wells to increasing UV exposure time and next conducting an MTT assay. […] The chosen exposure time was based on the exposure time that led to greater than 40% cell viability versus untreated cells determined by MTT assay. CBD treated cells were exposed to UV light for this predetermined time of 10 seconds (approximately 60 mJ/cm^2). After exposure the effect of CBD on cell viability was evaluated by an MTT assay. Control cells were cultured in parallel with no CBD treatment, but underwent UVB irradiation.

Turning to `C=C(C)[C@@H]1CCC(C)=C[C@H]1c1c(O)cc(CCCCC)cc1O` [CBD, cannabidiol], the “cell viability after irradiation with UVB” value in assay [1] is “dose dependent increase in cell viability”. Besides, the viability at 1 µM in assay [2] (1 μM CBD for 1 hour before UVB) turned out to be 48%. The viability at 4 µM in assay [2] (4 μM CBD for 1 hour before UVB) came to 65%. The viability at 8 µM in assay [2] (8 μM CBD for 1 hour before UVB) was 12%.
